Reference: US20040044079A1, “Methods and compositions for weight control” (The IAMS Company, priority 2002, published 2004)

What was measured:
[1] = incorporated into a high fat diet fed to mice; U.S. Pat. No. 6,054,480; cited from earlier work
[2] = Average body condition scores of dogs on treatment diets; format: in vivo; settings: for Average Body Condition Score: score 1 thin to 5 obese (Table 1); for Average Body Condition Score % Change: Day 0 to Day 84
Description: (§1) In phase I of the study, 80 beagle and mongrel dogs were fed a weight gain diet (36% protein, 26% fat by dry weight). The dogs were allowed to eat as much as they wished for 16 weeks. Weekly weight gain and daily food intake were measured for each dog. In phase II, the 20 dogs that were the poorest weight […] eliminated from the study. The 60 remaining dogs were randomly assigned to one of the four treatment groups. The treatment diets were the following: The dogs were given the treatment diets for 12 weeks. During this time the dogs were allowed to eat as much as they wished. Daily food intake and weekly body weight were measured. Body composition measurements were also taken, including fat, lean body mass, bone mineral content (BMC), and bone mineral density (BMD). These measurements help to determine the cause of weight loss-for instance, whether it is due to an increase in satiety and therefore reduced food intake, or an increase in thermogenesis. The measurements also allow a determination of whether weight loss results from a reduction in lean body mass or a loss of fat, or a combination of both. [table]

[3] = Daily food intake of dogs on treatment diets; format: in vivo; settings: experimental period of phase II, compared among the four diets, FIGS. 1 and 2
Description: as §1, with “both.” for “both. [table]”

[4] = Weekly body weight / weight loss of dogs on treatment diets; format: in vivo; settings: for weight loss: phase II, compared with control diet, FIGS. 3 and 4
Description: as §1, with “both.” for “both. [table]”

[5] = Whole body composition of overweight dogs fed treatment diets for 12 weeks; format: in vivo; settings: for Area: absolute data; for Area (relative data) / BMD (relative data) / Lean + BMC (relative data) / Total (relative data) / BMC (relative data) / Fat (relative data) / Lean (relative data): relative change, beginning to end of phase II
Description: as §1, with “following: Control. Similar to EUKANUBA REDUCED FAT dry dog food, consisting of approximately 19% protein and 10% fat on a dry weight basis, with an additional 3% poultry fat to achieve a total fat content of 13%. Free fatty acid mix. Identical to the control diet, but with 3% free fatty acids in place of the 3% poultry fat. The free fatty acid was technical grade linoleic acid. Ethyl esters of fatty acid mix. Identical to control diet, but with 3% ethyl ester of fatty acid in place of the 3% poultry fat. The ethyl ester used was ethyl oleate. Lotus leaf extract. Identical to the control, but with an additional 0.3% extract of lotus leaf. Lotus leaf extract has been used in China to promote human weight loss. It is purported to help induce a sense of satiety and reduce food consumption.” for “following:”, “both.” for “both. [table]”

[6] = second Lean column (body share)

| Compound | Average Body Condition Score ([2]; Day 0) | Average Body Condition Score % Change [2] [%] | Average Body Condition Score ([2]; Day 84) | food intake [3] | weight loss [4] | BMC (bone mineral content) ([5]; Day 0, absolute data) [g] | Fat ([5]; Day 0, absolute data) [g] | Lean ([5]; Day 0, absolute data) [g] | Lean + BMC ([5]; Day 0, absolute data) [g] | Total ([5]; Day 0, absolute data) [g] | BMC ([5]; Day 0, share of whole body) [%] | Fat ([5]; Day 0, share of whole body) [%] | Lean ([5]; Day 0, share of whole body) [%] | Area ([5]; Day 0, start of phase II) [cm^2] | BMC (bone mineral content) ([5]; Day 84, absolute data) [g] | Fat ([5]; Day 84, absolute data) [g] | Lean ([5]; Day 84, absolute data) [g] | Lean + BMC ([5]; Day 84, absolute data) [g] | Total ([5]; Day 84, absolute data) [g] | Area ([5]; Day 84, end of phase II) [cm^2] | other results |
| --- | --- | --- | --- | --- | --- | --- | --- | --- | --- | --- | --- | --- | --- | --- | --- | --- | --- | --- | --- | --- | --- |
| CCCCCCCCCCCCCC(=O)O [myristic acid] |  |  |  |  |  |  |  |  |  |  |  |  |  |  |  |  |  |  |  |  | effect on body weight [1]: caused weight loss or reduction of weight gain in the mice |
| CCCCCCCC/C=C\CCCCCCCC(=O)OCC [T × 2, ethyl oleate] | 4.0 | −7.5 | 3.7 | ate intermediate amounts, slightly more than the control diet | lost more weight than the control group for the first 9 weeks of phase II | 253.62 | 5956.12 | 9667.31 | 9920 | 15877.02 | 1.61 | 36.77 | 61.63 | 395.54 | 229.74 | 4723.12 | 9837.15 | 10066.89 | 14790.01 | 362.26 | average weight ([4]; 10th-12th weeks of phase II, compared with control group): average weight increased above that of the control group; BMC ([5]; Day 84, share of whole body): 1.57%; Fat ([5]; Day 84, share of whole body): 31.44%; Lean ([5]; Day 84, share of whole body): 66.99%; Area (relative data) [5]: −7.99%; BMD (relative data) [5]: −0.58%; Lean + BMC (relative data) [5]: −4.69%; Total (relative data) [5]: −6.56%; BMC (relative data) ([5]; first BMC column): −8.58%; Fat (relative data) ([5]; first Fat column (mass)): −18.59%; Lean (relative data) ([5]; first Lean column (mass)): 2.06%; BMC (relative data) ([5]; second BMC column (body share)): −2.39%; Fat (relative data) ([5]; second Fat column (body share)): −13.43%; Lean (relative data) [5, 6]: 9.61% |
| CCCCC/C=C\C/C=C\CCCCCCCC(=O)O [T × 1, linoleic acid] | 4.1 | −19.5 | 3.3 | ate intermediate amounts, slightly more than the control diet | generally greatest | 263.95 | 5772.09 | 9840.21 | 10104.15 | 15876.27 | 1.67 | 35.74 | 62.58 | 402.07 | 257.27 | 4109.94 | 9607.27 | 9864.54 | 13974.49 | 387.39 | BMC ([5]; Day 84, share of whole body): 1.84%; Fat ([5]; Day 84, share of whole body): 29.22%; Lean ([5]; Day 84, share of whole body): 68.94%; Area (relative data) [5]: −3.98%; BMD (relative data) [5]: 1.15%; Lean + BMC (relative data) [5]: −2.38%; Total (relative data) [5]: −11.75%; BMC (relative data) ([5]; first BMC column): −3.06%; Fat (relative data) ([5]; first Fat column (mass)): −28.22%; Lean (relative data) ([5]; first Lean column (mass)): −2.34%; BMC (relative data) ([5]; second BMC column (body share)): 10.16%; Fat (relative data) ([5]; second Fat column (body share)): −18.59%; Lean (relative data) [5, 6]: 10.84% |
